Data: patent publication US6376497B1, “Antifungal azole derivatives having a fluorinated vinyl group and process for preparing same” (Korea Research Institute of Chemical Technology, priority 1999, dated 2002)

Experiments:
Experiment in all cases: In vitro antifungal activity, microbroth dilution MIC
Type in all cases: cell-based
[1] = test system: Candida albicans IFO. 1385; conditions: C. albicans IFO. 1385, RPMI-1640, 35° C., 4 to 48 hours
Method: (§1) In vitro antifungal activities of the inventive antifungal compounds were evaluated using the test strains shown in Table VIII by the following microbroth dilution method which is a modified version of the procedure recommended by National Committee for Clinical Laboratory Standards(see National Committee for Clinical Laboratory Standards, 1992, Reference methods for broth dilution antifungal susceptibility testing of yeasts, Proposed standard M27-P, National Committee for clinical laboratory standards, Villanova, Pa; and National Committee for Clinical Laboratory Standards, 1995, Reference methods for broth dilution antifungal susceptibility testing of yeasts. Tentative standard M27-T, National Committee for clinical laboratory standards, Villanova, Pa).
(§2) Sabourad Dextrose Agar(Difco) was used as a culture medium, and RPMI-1640 broth(Sigma. Co. w/L-glutamine, wo/NaHCO3)(0.165 M MOPS, pH 7.0), as a dilution medium.
(§3) Each of the test strains were subcultured in Sabourad Dextrose Agar medium twice and a stain sample was taken from prominent colonies and suspended in sterile physiological saline solution in a cap tube. The turbidity of the suspension was adjusted to that of the Mcfarland 0.5 standard sample(approximately 10^6 CFU/ml). Then the suspension was diluted 500-fold with sterile RPMI-1640 liquid medium to 2×10^3 CFU/ml.
(§4) Each of the test compounds(the compounds obtained in Examples 1 to 150 and comparative compounds, i.e., fluconazole(FCZ) and itraconazole (ICZ)), was dissolved in DMSO to give a stock solution having a concentration of 4000 μg/ml and the stock solution was successively diluted to obtain test solutions having test compound concentrations of 200, 100, 50, 25, 12.5, 6.25, 3.13, 1.56, 0.78, 0.39, 0.20 and 0.10 μg/ml, respectively.
(§5) 0.1 ml portion of the test solutions were added to the wells of a sterile 96 well plate. Then, 0.1 ml portion of each of the test strain solutions were added successively to the wells and the plate was incubated at 35° C. for 4 to 48 hours.
(§6) Minimal inhibitory concentration(MIC) of each compound was defined as the concentration of the test compound where no growth of the strain could be observed.

[2] = test system: Candida albicans C1-2; conditions: C. albicans C1-2, RPMI-1640, 35° C., 4 to 48 hours
Method: as §1, §2, §3, §4, §5, §6

[3] = test system: Cryptococcus neoformans A. 34144; conditions: Cry. neoformans A. 34144, RPMI-1640, 35° C., 4 to 48 hours
Method: as §1, §2, §3, §4, §5, §6

[4] = test system: Trichophyton mentagrophytes A. 9129; conditions: T. mentagrophytes A. 9129, RPMI-1640, 35° C., 4 to 48 hours
Method: as §1, §2, §3, §4, §5, §6

[5] = test system: Candida pseudotropicalis K. 11658; conditions: C. pseudotropicalis K. 11658, RPMI-1640, 35° C., 4 to 48 hours
Method: as §1, §2, §3, §4, §5, §6

[6] = test system: Candida parapsitosis A. 7330; conditions: C. parapsitosis A. 7330, RPMI-1640, 35° C., 4 to 48 hours
Method: as §1, §2, §3, §4, §5, §6

[7] = test system: Trichophyton mentagrophytes B. 32663; conditions: T. mentagrophytes B. 32663, RPMI-1640, 35° C., 4 to 48 hours
Method: as §1, §2, §3, §4, §5, §6

[8] = test system: Cryptococcus neoformans IFM. 40092; conditions: Cry. neoformans IFM. 40092, RPMI-1640, 35° C., 4 to 48 hours
Method: as §1, §2, §3, §4, §5, §6

[9] = test system: Candida albicans A. 10231; conditions: C. albicans A. 10231, RPMI-1640, 35° C., 4 to 48 hours
Method: as §1, §2, §3, §4, §5, §6

[10] = test system: Aspergillus niger A. 16404; conditions: A. niger A. 16404, RPMI-1640, 35° C., 4 to 48 hours
Method: as §1, §2, §3, §4, §5, §6

[11] = test system: Cryptococcus neoformans B. 42419; conditions: Cry. neoformans B. 42419, RPMI-1640, 35° C., 4 to 48 hours
Method: as §1, §2, §3, §4, §5, §6

[12] = test system: Torulopsis glabrata B. 16205; conditions: T. glabrata B. 16205, RPMI-1640, 35° C., 4 to 48 hours
Method: as §1, §2, §3, §4, §5, §6

[13] = test system: Aspergillus furnigatus B. 19119; conditions: A furnigatus B. 19119, RPMI-1640, 35° C., 4 to 48 hours
Method: as §1, §2, §3, §4, §5, §6

[14] = test system: Candida tropicalis A. 13803; conditions: C. tropicalis A. 13803, RPMI-1640, 35° C., 4 to 48 hours
Method: as §1, §2, §3, §4, §5, §6

[15] = test system: Candida krusei K. 11655; conditions: C. krusei K. 11655, RPMI-1640, 35° C., 4 to 48 hours
Method: as §1, §2, §3, §4, §5, §6

| Minimal inhibitory concentration (MIC) [1] | Minimal inhibitory concentration (MIC) [2] | Minimal inhibitory concentration (MIC) [3] | Minimal inhibitory concentration (MIC) [4] | Minimal inhibitory concentration (MIC) [5] | Minimal inhibitory concentration (MIC) [6] | Minimal inhibitory concentration (MIC) [7] | Minimal inhibitory concentration (MIC) [8] | Minimal inhibitory concentration (MIC) [9] | Minimal inhibitory concentration (MIC) [10] | Minimal inhibitory concentration (MIC) [11] | Minimal inhibitory concentration (MIC) [12] | Minimal inhibitory concentration (MIC) [13] | Minimal inhibitory concentration (MIC) [14] | Minimal inhibitory concentration (MIC) [15] | SMILES |
| --- | --- | --- | --- | --- | --- | --- | --- | --- | --- | --- | --- | --- | --- | --- | --- |
| 0.39 µg/mL | 25.0 µg/mL | 1.56 µg/mL | 6.25 µg/mL | 6.25 µg/mL | 12.5 µg/mL | 1.56 µg/mL | 0.39 µg/mL | 25.0 µg/mL | 100 µg/mL | 1.56 µg/mL | 6.25 µg/mL | 12.5 µg/mL | 50.0 µg/mL | 12.5 µg/mL | CC(C)Oc1cccc(C=C(F)OCC2COC(Cn3ccnc3)(c3ccc(F)cc3F)O2)c1 (mixture of isomers) [Ex. 45] |
| 0.20 µg/mL | 12.5 µg/mL | 0.78 µg/mL | 0.39 µg/mL | 6.25 µg/mL | 6.25 µg/mL | ≦0.10 μg/ml | ≦0.10 μg/ml | 12.5 µg/mL | 6.25 µg/mL | 0.78 µg/mL | 6.25 µg/mL | 1.56 µg/mL | 25.0 µg/mL | 12.5 µg/mL | FC(=Cc1ccc(Cl)cc1)OCC1COC(Cn2ccnc2)(c2ccc(F)cc2F)O1 (mixture of isomers) [Ex. 47] |
| 0.20 µg/mL | 25.0 µg/mL | 0.78 µg/mL | 0.39 µg/mL | 12.5 µg/mL | 25.0 µg/mL | ≦0.10 μg/ml | ≦0.10 μg/ml | 25.0 µg/mL | 6.25 µg/mL | 0.78 µg/mL | 12.5 µg/mL | 1.56 µg/mL | 50.0 µg/mL | 25.0 µg/mL | FC(=Cc1cccc(F)c1)OCC1COC(Cn2ccnc2)(c2ccc(F)cc2F)O1 (mixture of isomers) [Ex. 48] |
| 0.20 µg/mL | 25.0 µg/mL | 0.78 µg/mL | 0.39 µg/mL | 12.5 µg/mL | 25.0 µg/mL | ≦0.10 μg/ml | ≦0.10 μg/ml | 25.0 µg/mL | 6.25 µg/mL | 0.78 µg/mL | 12.5 µg/mL | 1.56 µg/mL | 50.0 µg/mL | 25.0 µg/mL | FC(=Cc1ccc(F)cc1)OCC1COC(Cn2ccnc2)(c2ccc(F)cc2F)O1 (mixture of isomers) [Ex. 49] |
| 0.39 µg/mL | 12.5 µg/mL | 1.56 µg/mL | 3.13 µg/mL | 12.5 µg/mL | 12.5 µg/mL | 0.78 µg/mL | 0.20 µg/mL | 12.5 µg/mL | 25.0 µg/mL | 1.56 µg/mL | 6.25 µg/mL | 6.25 µg/mL | 25.0 µg/mL | 25.0 µg/mL | Cc1cc(C=C(F)OCC2COC(Cn3ccnc3)(c3ccc(F)cc3F)O2)ccc1Cl (mixture of isomers) [Ex. 50] |

The remaining lines, values behind:

| SMILES | Minimal inhibitory concentration (MIC) [1] | Minimal inhibitory concentration (MIC) [2] | Minimal inhibitory concentration (MIC) [3] | Minimal inhibitory concentration (MIC) [4] | Minimal inhibitory concentration (MIC) [5] | Minimal inhibitory concentration (MIC) [6] | Minimal inhibitory concentration (MIC) [7] | Minimal inhibitory concentration (MIC) [8] | Minimal inhibitory concentration (MIC) [9] | Minimal inhibitory concentration (MIC) [10] | Minimal inhibitory concentration (MIC) [11] | Minimal inhibitory concentration (MIC) [12] | Minimal inhibitory concentration (MIC) [13] | Minimal inhibitory concentration (MIC) [14] | Minimal inhibitory concentration (MIC) [15] |
| --- | --- | --- | --- | --- | --- | --- | --- | --- | --- | --- | --- | --- | --- | --- | --- |
| FC(=Cc1cccc2ccccc12)OCC1COC(Cn2ccnc2)(c2ccc(F)cc2F)O1 (mixture of isomers) [Ex. 51] | 0.39 µg/mL | 12.5 µg/mL | 1.56 µg/mL | 1.56 µg/mL | 25.0 µg/mL | >100 µg/mL | 0.78 µg/mL | 0.20 µg/mL | 12.5 µg/mL | 12.5 µg/mL | 1.56 µg/mL | 6.25 µg/mL | 3.13 µg/mL | 25.0 µg/mL | 50.0 µg/mL |
| FC(OCC1COC(Cn2ccnc2)(c2ccc(F)cc2F)O1)=C(c1ccccc1)C(F)(F)F (mixture of isomers) [Ex. 52] | 0.39 µg/mL | 12.5 µg/mL | 0.78 µg/mL | 1.56 µg/mL | 50.0 µg/mL | >100 µg/mL | 0.78 µg/mL | ≦0.10 μg/ml | 12.5 µg/mL | 6.25 µg/mL | 0.78 µg/mL | 3.13 µg/mL | 1.56 µg/mL | 50.0 µg/mL | 100 µg/mL |
| Cc1cccc(C(=C(F)OCC2COC(Cn3ccnc3)(c3ccc(F)cc3F)O2)C(F)(F)F)c1 (mixture of isomers) [Ex. 53] | 0.78 µg/mL | 25.0 µg/mL | 1.56 µg/mL | 3.13 µg/mL | >100 µg/mL | >100 µg/mL | 1.56 µg/mL | ≦10.10 μg/ml | 12.5 µg/mL | 25.0 µg/mL | 0.78 µg/mL | 6.25 µg/mL | 3.13 µg/mL | 100 µg/mL | >100 µg/mL |
